pIC50: −log10 of the molar value. Where two headings read alike, the source gives them in different places.
How the values were obtained:
MAO = MAO activity assay (total MAO); format: biochemical; settings: for Inhibition Rate for MAO: compounds concentration 100 µM
Protocol: (§1) The enzyme activity analysis was performed according to the procedure reported by Matsumoto et al. with slight modifications. All materials used in the enzymatic assays were purchased from Aladdin Reagent Chemicals. […] The concentrations of the synthesized compounds altered from 0.001 µM to 100 µM for the MAO-A and -B enzyme activity inhibition. […] The enzymatic reactions were caused by the addition of MAO-A (40 µg/mL) or MAO-B (20 µg/mL), and cultured at 37 °C for 30 min. The enzyme reactions were stopped through the addition of 2N NaOH for 75 µL. […] The inhibitory effect of enzyme activity was calculated as a percentage of product formation compared to the corresponding control with no inhibitor. A control was established to determine the interference of the tested compounds to the fluorescence assay, and the enzyme or substrate was added after the reaction stopped.

MAO-A [1] = biological target: T1, MAO-A (Homo sapiens, UniProt P21397); assay: MAO activity assay, MAO-A; format: biochemical
T1 construct: purchased Aladdin Reagent Chemicals
T1 sequence (P21397 1-527): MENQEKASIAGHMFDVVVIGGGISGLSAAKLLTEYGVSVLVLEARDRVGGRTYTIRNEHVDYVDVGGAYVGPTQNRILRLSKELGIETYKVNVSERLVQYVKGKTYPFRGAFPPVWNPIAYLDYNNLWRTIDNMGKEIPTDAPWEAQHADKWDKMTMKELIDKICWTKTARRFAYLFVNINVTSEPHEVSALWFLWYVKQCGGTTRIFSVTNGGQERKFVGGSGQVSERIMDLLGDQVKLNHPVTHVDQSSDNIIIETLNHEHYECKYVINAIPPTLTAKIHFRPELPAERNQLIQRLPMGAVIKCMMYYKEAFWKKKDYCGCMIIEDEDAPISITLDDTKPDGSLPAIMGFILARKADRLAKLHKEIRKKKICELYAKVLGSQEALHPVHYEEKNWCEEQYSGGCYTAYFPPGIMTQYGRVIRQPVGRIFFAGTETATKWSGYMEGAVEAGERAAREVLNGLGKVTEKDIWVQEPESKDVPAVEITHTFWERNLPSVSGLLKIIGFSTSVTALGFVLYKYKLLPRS
Protocol: as §1

MAO-B [2] = biological target: T2, MAO-B (Homo sapiens, UniProt P27338); assay: MAO activity assay, MAO-B; format: biochemical
T2 construct: purchased Aladdin Reagent Chemicals
T2 sequence (P27338 1-520): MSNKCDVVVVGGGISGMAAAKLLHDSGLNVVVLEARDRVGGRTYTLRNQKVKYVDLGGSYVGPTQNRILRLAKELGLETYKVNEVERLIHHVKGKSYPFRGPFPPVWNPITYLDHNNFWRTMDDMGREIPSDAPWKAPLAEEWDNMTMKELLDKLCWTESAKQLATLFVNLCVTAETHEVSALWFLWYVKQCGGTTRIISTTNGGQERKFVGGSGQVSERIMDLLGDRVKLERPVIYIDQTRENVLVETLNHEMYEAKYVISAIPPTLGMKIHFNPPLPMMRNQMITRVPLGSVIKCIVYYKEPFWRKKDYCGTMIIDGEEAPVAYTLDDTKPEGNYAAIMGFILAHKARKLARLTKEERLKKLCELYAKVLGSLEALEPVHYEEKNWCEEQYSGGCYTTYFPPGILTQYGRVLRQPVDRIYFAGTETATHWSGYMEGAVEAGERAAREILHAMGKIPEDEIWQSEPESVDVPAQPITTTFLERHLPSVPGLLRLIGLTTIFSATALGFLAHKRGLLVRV
Protocol: as §1

MTT cytotoxicity test = format: cell-based; settings: mouse; L929 cells, compared with the blank control, 3.125 to 100 μM
Protocol: (§2) L929 cells in the logarithmic growth phase were selected, and the cell density was adjusted to 2 × 10^4 per well by a cell counter. The 96-well plate was inoculated in a 96-well plate, and the 96-well plate inoculated with cells was cultured in a 37 °C 5% carbon dioxide cell incubator for 24 h. Then, the medium containing 100 μM of the compound to be tested was added (the blank group was added to the medium without drug), shaken gently, and placed in a 5% carbon dioxide cell incubator at 37 °C for 24 h. Each concentration was repeated for […].
(§3) The assay detects live cells, but not dead cells, and the resulting signal depends on how activated the cells are. […] Therefore, MTT has been used to establish quantitative colorimetric assays for mammalian cell survival and proliferation. Therefore, this method can be used to measure cytotoxicity, proliferation, or activation. After 24 h, 20 μL of […] MTT solution (prepared in PBS with pH 7.6) was added in the dark, and cultured in a cell incubator for another 4 h. After 4 h, the 96 plate was taken out to discard the original medium, and 160 μL of DMSO was added, placed on a shaker, and mixed for about 10 min. Then, a microplate reader was used to measure its absorbance at 490 nm, and the results were recorded and analyzed.

L929 cells [3] = assay: MTT cytotoxicity test; format: cell-based; settings: MTT, 3.125 to 100 μM
Protocol: as §2, §3

L929 cells [4] = assay: AO fluorescent staining cell viability; format: cell-based; settings: 100 μM, compared with the control group
Protocol: Using the AO Fluorescent Staining Kit, AO is a tricyclic heteroaromatic dye that can penetrate cells with intact cell membranes and embed nuclear DNA, making them emit bright green fluorescence. L929 cells were selected from the logarithmic growth phase, and the cell density was adjusted to 8 × 10^5 per well with a cell counter to inoculate in a 6-well plate, and the 6-well plate was placed in a 37 °C 5% carbon dioxide cell incubator for 12 h. It grew completely adhering to the wall. After 12 h, 1 mL of medium containing 100 μM of the compound to be tested was added (for the blank group, drug-free medium was added), shaken gently, and placed in a 5% carbon dioxide cell incubator at 37 °C for 12 h. After 12h, the medium was discarded, PBS was added to wash once, 1 mL of PBS and 80 μL of AO solution (prepared according to the kit instructions) were slowly added in the dark, and mixed for 5 min to make the staining uniform and sufficient. The staining was aspirated after 5 min, washed 1–2 times with PBS, and observed under a fluorescence microscope, the results were recorded and analyzed.

[5] = design: method as in doi:10.1007/s00044-018-2261-2; settings: forced swimming test, p< 0.001; cited from earlier work
BChE [6] = biological target: T3, BChE (Homo sapiens, UniProt P06276); assay: biochemical; settings: compounds concentration 100 µM; read-out: Inhibition Rate BChE
T3 sequence (P06276 29-602): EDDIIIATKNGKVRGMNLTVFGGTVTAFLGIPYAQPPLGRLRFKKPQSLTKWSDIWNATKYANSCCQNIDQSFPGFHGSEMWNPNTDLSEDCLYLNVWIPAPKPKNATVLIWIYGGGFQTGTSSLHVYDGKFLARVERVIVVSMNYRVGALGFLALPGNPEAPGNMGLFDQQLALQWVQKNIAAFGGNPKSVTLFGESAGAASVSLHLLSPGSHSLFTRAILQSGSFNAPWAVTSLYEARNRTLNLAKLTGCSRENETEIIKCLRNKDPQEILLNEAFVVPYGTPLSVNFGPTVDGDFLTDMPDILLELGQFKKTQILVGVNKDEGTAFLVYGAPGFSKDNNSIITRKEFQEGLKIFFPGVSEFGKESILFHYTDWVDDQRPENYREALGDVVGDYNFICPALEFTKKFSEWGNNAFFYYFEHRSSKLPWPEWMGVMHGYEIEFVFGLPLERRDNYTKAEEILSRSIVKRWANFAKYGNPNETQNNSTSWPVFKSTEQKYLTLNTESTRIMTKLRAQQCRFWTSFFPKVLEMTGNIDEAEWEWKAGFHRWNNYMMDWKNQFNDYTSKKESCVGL
Protocol: Inhibition of AChE and BChE was measured through the spectrophotometric method developed by Ellman’s method with slight modifications. The analysis protocol contained 96-well plates (100 µL per well). Each well involved 20 µL of assay buffer solution, 20 µL of the test sample, and 40 µL of 0.2 U/mL of AChE or BChE. The mixture was incubated for 10 min at 25 °C followed by the addition of substrate (20 µL). For AChE inhibition assay, acetylthiocholine iodide (ATCI, 0.001 mol/L), while for BChE assay, butyrylthiocholine chloride (BTCCl, 0.001 mol/L) was added to it. The mixture was incubated at 37 °C for 15 min. Ellman reagent (5,5′-dithio-bis(2-nitrobenzoic acid), DTNB, 0.001 mol/L) was added. […] The blank analysis was performed. All the analyses were performed in triplicate. Inhibition rate of experimental sample or positive control group (%) = [(control group-blank background)-(experimental sample or positive control group -sample background)]/(control-blank background) × 100%.

AChE = AChE (Homo sapiens, UniProt P22303); settings: cited from earlier work
Sequence of AChE (P22303 32-614): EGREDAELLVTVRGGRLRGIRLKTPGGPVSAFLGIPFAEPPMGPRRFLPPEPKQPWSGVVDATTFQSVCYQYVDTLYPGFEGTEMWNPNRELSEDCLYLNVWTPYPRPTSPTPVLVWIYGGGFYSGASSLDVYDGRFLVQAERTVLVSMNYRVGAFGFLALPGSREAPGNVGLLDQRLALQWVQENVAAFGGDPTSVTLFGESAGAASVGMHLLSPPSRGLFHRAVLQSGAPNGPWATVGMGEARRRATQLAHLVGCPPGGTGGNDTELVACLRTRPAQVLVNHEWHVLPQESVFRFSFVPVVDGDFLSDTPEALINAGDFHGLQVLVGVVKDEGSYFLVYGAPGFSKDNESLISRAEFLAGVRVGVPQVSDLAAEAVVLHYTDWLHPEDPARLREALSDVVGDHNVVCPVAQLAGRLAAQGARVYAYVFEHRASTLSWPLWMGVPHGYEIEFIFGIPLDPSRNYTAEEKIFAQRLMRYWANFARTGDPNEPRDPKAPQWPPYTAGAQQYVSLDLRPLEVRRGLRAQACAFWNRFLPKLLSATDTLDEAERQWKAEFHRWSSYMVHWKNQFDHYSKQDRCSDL

BChE [7] = biological target: T3, BChE; settings: cited from earlier work
[8] = biological target: electric eel acetylcholinesterase (EeAChE); settings: cited from earlier work
[9] = biological target: horse serum butyrylcholinesterase (EqBChE); settings: cited from earlier work
MAO-A [10] = biological target: T1, MAO-A; settings: cited from earlier work
MAO-B [11] = biological target: T2, MAO-B; settings: cited from earlier work

SMILES | pIC50 (MAO) | pIC50 (MAO-A [1]) | pIC50 (MAO-B [2]) | viability at 24 h (MTT cytotoxicity test) [%] | cytotoxicity against L929 cells (L929 cells [3]) | toxicity toward L929 cells (AO fluorescence staining) (L929 cells [4]) | inhibition at 100 µM (BChE [6]) [%] | other results
COc1ccc(CNC(=O)N2CCc3ccccc3[C@@H]2c2ccccc2)c(OC)c1 [2v, (S)-N-(2,4-dimethoxybenzyl)-1-phenyl-3,4-dihydroisoquinoline-2(1H)-carboxamide] | 6.02 | 5.45 | 5.45 | > 90 | no obvious cytotoxicity | no significant toxicity |  | 
O=C(NCc1ccccc1)N1CCc2ccccc2[C@@H]1c1ccccc1 [2a, (S)-N-benzyl-1-phenyl-3,4-dihydroisoquinoline-2(1H)-carboxamide] |  |  |  |  |  |  |  | Inhibition Rate for MAO (MAO): 29.2%; duration of immobility [5]: 11.0 ± 7.1 s
O=C(NCc1ccc(F)cc1)N1CCc2ccccc2[C@@H]1c1ccccc1 [2d, (S)-N-(p-fluorobenzyl)-1-phenyl-3,4-dihydroisoquinoline-2(1H)-carboxamide] | 5.24 | 5.86 | < 4.00 | > 90 | no obvious cytotoxicity | no significant toxicity |  | 
O=C(NCc1ccc(Cl)c(Cl)c1)N1CCc2ccccc2[C@@H]1c1ccccc1 [2z, (S)-N-(3,4-dichlorobenzyl)-1-phenyl-3,4-dihydroisoquinoline-2(1H)-carboxamide] |  |  |  |  |  |  | 12.1 | Inhibition Rate for MAO (MAO): 7.40%
O=C(NCc1cccc(Br)c1)N1CCc2ccccc2[C@@H]1c1ccccc1 [2i, (S)-N-(m-bromobenzyl)-1-phenyl-3,4-dihydroisoquinoline-2(1H)-carboxamide] | 5.87 | 5.81 | 5.37 | > 90 | no obvious cytotoxicity | no significant toxicity |  | 
COc1cc2c3c(c1OC)-c1cc4c(cc1CC3NCC2)OCO4 (centres unmarked) [nornantenine] |  |  |  |  |  |  |  | pIC50 (AChE): 3.69; pIC50 (BChE [7]): 4.02
COc1ccc(CC2c3cc(O)c(OC)cc3CCN2C)cc1O (centres unmarked) [reticuline] |  |  |  |  |  |  |  | pIC50 (AChE): 3.52; pIC50 (BChE [7]): 4.19
Cc1ccccc1CNC(=O)N1CCc2ccccc2[C@@H]1c1ccccc1 [2p, (S)-N-(o-methylbenzyl)-1-phenyl-3,4-dihydroisoquinoline-2(1H)-carboxamide] | 6.11 | 5.53 | 5.41 | > 90 | no obvious cytotoxicity | no significant toxicity |  | 
C[n+]1cc2cc3c(cc2c2ccc4cc5c(cc4c21)OCO5)OCO3 [avicine] |  |  |  |  |  |  |  | pIC50 [8]: 6.82; pIC50 [9]: 6.06; pIC50 (MAO-A [10]): 6.39
O=C(NCc1c(F)cccc1F)N1CCc2ccccc2[C@@H]1c1ccccc1 [2ab, (S)-N-(2,6-difluorobenzyl)-1-phenyl-3,4-dihydroisoquinoline-2(1H)-carboxamide] |  |  |  |  |  |  | 24.9 | Inhibition Rate for MAO (MAO): 33.0%
COc1cccc(CNC(=O)N2CCc3ccccc3[C@@H]2c2ccccc2)c1 [2t, (S)-N-(m-methoxybenzyl)-1-phenyl-3,4-dihydroisoquinoline-2(1H)-carboxamide] | 5.68 | 5.60 | 5.79 | > 90 | no obvious cytotoxicity | no significant toxicity | 55 | 
O=C(NCc1ccc(Br)cc1)N1CCc2ccccc2[C@@H]1c1ccccc1 [2j, (S)-N-(p-bromobenzyl)-1-phenyl-3,4-dihydroisoquinoline-2(1H)-carboxamide] | 5.71 | 5.61 | < 4.00 | > 90 | no obvious cytotoxicity | no significant toxicity | 34.5 | 
O=C(NCc1ccccc1F)N1CCc2ccccc2[C@@H]1c1ccccc1 [2b, (S)-N-(o-fluorobenzyl)-1-phenyl-3,4-dihydroisoquinoline-2(1H)-carboxamide] |  |  |  |  |  |  | 49 | 
COc1ccc2c(c[n+](C)c3c4cc5c(cc4ccc23)OCO5)c1OC [chelerythrine] |  |  |  |  |  |  |  | pIC50 (MAO-B [11]): < 4.70
